Experimental data from patent US20240317708A1, “INHIBITORS OF TRANSGLUTAMINASES” (ZEDIRA GMBH, priority 2021, published 2024).

Columns and labels:
[1] = molecular target: T1, recombinant human transglutaminase 2 (Homo sapiens, UniProt P21980); assay: Transglutaminase assay (dansylcadaverine incorporation into dimethylcasein, DCC-assay); format: biochemical; details: recombinant human TG2 10 nM, dansylcadaverine/dimethylcasein, 37° C.
T1 construct: purchased Zedira T022
T1 sequence (P21980 1-687): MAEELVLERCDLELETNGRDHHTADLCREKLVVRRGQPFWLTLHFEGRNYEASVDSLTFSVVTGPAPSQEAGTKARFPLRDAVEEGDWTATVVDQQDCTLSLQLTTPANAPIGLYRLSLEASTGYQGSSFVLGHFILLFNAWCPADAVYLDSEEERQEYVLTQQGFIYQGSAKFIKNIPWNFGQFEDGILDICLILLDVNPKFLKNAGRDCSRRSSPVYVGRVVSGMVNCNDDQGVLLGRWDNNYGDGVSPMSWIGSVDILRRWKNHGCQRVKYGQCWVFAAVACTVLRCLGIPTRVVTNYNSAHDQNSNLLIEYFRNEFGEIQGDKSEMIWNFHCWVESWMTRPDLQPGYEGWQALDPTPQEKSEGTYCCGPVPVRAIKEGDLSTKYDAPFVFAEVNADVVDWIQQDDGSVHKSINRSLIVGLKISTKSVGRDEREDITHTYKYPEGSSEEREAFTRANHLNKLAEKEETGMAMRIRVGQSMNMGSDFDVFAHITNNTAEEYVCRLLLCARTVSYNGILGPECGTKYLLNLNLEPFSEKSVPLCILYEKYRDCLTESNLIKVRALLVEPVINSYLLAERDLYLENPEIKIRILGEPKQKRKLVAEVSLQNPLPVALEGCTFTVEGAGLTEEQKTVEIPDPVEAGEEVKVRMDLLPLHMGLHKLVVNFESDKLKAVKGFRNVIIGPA
In short: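 IC50 derived from fluorescence slope between 20 and 30 min (λex 330 nm, λem 500 nm, 37 °C), expressed relative to a 2% DMSO control. Reaction: 10 nM recombinant human TG2, 4 μM dimethylcasein, 16.7 μM dansylcadaverine, 10 mM CaCl2 and glutathione, pH 8.0.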

[2] = Log D shake flask method (octanol / PBS pH 7.4, HPLC); format: physicochemical; details: octanol/phosphate-buffered saline (PBS); octanol / PBS pH 7.4, shake flask
Experimental: In order to classify the inventive compounds according to their lipophilicity, Log D values (distribution coefficient) were determined by means of the well-established shake flask method, measuring the partition of a compound between an octanol and phosphate-buffered saline (PBS, pH 7.4) by HPLC.

[3] = Caco-2 permeability assay (CacoReady kit); format: in vitro ADME; details: human
In short: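 Read-out is the permeability coefficient Papp, obtained from transport across a Caco-2 barrier prepared from a ready-to-use kit following the manufacturer's instructions.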

SMILES | IC50 [1] | logD [2] | Papp [3]
COC(=O)/C=C/CC[C@H](NC(=O)c1sc(C(F)(F)F)nc1C)C(=O)Nc1cccn(CC(=O)N[C@@H]2C[C@@H]3CC[C@H]2C3)c1=O [III-125, (S,E)-methyl 7-(1-(2-((1S,2R,4R)-bicyclo[2.2.1]heptan-2-ylamino)-2-oxoethyl)-2-oxo-1,2-dihydropyridin-3-ylamino)-6-(4-methyl-2-(trifluoromethyl)thiazole-5-carboxamido)-7-oxohept-2-enoate] | < 25 nM | 1 to 3 | 1 to 10 ×10⁻⁶ cm/s
COC(=O)/C=C/CC[C@H](NC(=O)C1CCc2ccccc2C1)C(=O)Nc1cccn(CC(=O)NC2C3CC4CC2CC(C(=O)N(C)C)(C4)C3)c1=O (stereo partly drawn) [III-137, (6S,E)-methyl 7-(1-(2-(4-aminoadamantane-N,N-dimethyl-1-carboxamide)-2-oxoethyl)-2-oxo-1,2-dihydropyridin-3-ylamino)-7-oxo-6-(1,2,3,4-tetrahydronaphthalene-2-carboxamido)hept-2-enoate] | 250 to 1500 nM | 1 to 3 | < 1 ×10⁻⁶ cm/s
COC(=O)/C=C/CC[C@H](NC(=O)c1sc(C(F)(F)F)nc1C)C(=O)Nc1cccn(CC(=O)NC23CC4CC(C)(CC(C)(C4)C2)C3)c1=O [III-123, (S,E)-methyl 7-(1-(2-(3,5-dimethyladamantane-1-amino)-2-oxoethyl)-2-oxo-1,2-dihydropyridin-3-ylamino)-6-(4-methyl-2-(trifluoromethyl)thiazole-5-carboxamido)-7-oxohept-2-enoate] | < 25 nM | 3 to 5 | 1 to 10 ×10⁻⁶ cm/s
COC(=O)/C=C/CC[C@H](NC(=O)[C@H]1COCCN1)C(=O)Nc1cccn(CC(=O)NC2C3CC4CC(C3)CC2C4)c1=O (stereo partly drawn) [III-31, (S,E)-methyl 7-(1-(2-(2-adamantylamino)-2-oxoethyl)-2-oxo-1,2-dihydropyridin-3-ylamino)-6-((R)-morpholine-3-carboxamido)-7-oxohept-2-enoate] | 25 to 250 nM | 1 to 3 | < 1 ×10⁻⁶ cm/s
COC(=O)/C=C/CC[C@H](NC(=O)c1csc2ccccc12)C(=O)Nc1cccn(CC(=O)NC2C3CC4CC(C3)CC2C4)c1=O (stereo partly drawn) [III-107, (S,E)-methyl 6-(benzo[b]thiophene-3-carboxamido)-7-(1-(2-(2-adamantylamino)-2-oxoethyl)-2-oxo-1,2-dihydropyridin-3-ylamino)-7-oxohept-2-enoate] | 25 to 250 nM | 3 to 5 | 1 to 10 ×10⁻⁶ cm/s
COC(=O)/C=C/CC[C@H](NC(=O)c1c(C)noc1C)C(=O)Nc1cccn(CC(=O)NC2C3CCCC2CC3)c1=O (stereo partly drawn) [III-135, (6S,E)-methyl 7-(1-(2-(bicyclo[3.2.1]octan-8-ylamino)-2-oxoethyl)-2-oxo-1,2-dihydropyridin-3-ylamino)-6-(3,5-dimethylisoxazole-4-carboxamido)-7-oxohept-2-enoate] | 25 to 250 nM | 1 to 3 | 1 to 10 ×10⁻⁶ cm/s
COC(=O)/C=C/CC[C@H](NC(=O)c1ncc(OC)o1)C(=O)Nc1cccn(CCC(=O)NC2C3CC4CC(C3)CC2C4)c1=O (stereo partly drawn) [III-133, (S,E)-methyl 7-(1-(3-(2-adamantylamino)-3-oxopropyl)-2-oxo-1,2-dihydropyridin-3-ylamino)-6-(5-methoxyoxazole-2-carboxamido)-7-oxohept-2-enoate] | 250 to 1500 nM | 3 to 5 | < 1 ×10⁻⁶ cm/s
COC(=O)/C=C/CC[C@H](NC(=O)C1CN2CCC1CC2)C(=O)Nc1cccn(CC(=O)NC2C3CC4CC(C3)CC2C4)c1=O (stereo partly drawn) [III-32, (S,E)-methyl 7-(1-(2-(2-adamantylamino)-2-oxoethyl)-2-oxo-1,2-dihydropyridin-3-ylamino)-7-oxo-6-(quinuclidine-3-carboxamido)hept-2-enoate] | 25 to 250 nM | 3 to 5 | < 1 ×10⁻⁶ cm/s
